The results in this text go back to US4503256A, “Phlorophenone derivatives, processes for preparing such compounds, uses and pharmaceutical compositions of phlorophenone compounds” (Noristan Limited, priority 1981, dated 1985).

Data set [1] deals with S. AUREUS. Nature of the data set: Minimum Inhibitory Concentration (MIC), broth dilution in Brain Heart Infusion broth. It counts as cell-based, Staphylococcus aureus. Particulars: 37° C., 48 hours, Brain Heart Infusion broth. The method, then:
(§1) For testing against the bacteria, concentrations of each of the compounds were prepared in Brain Heart Infusion broth (Oxoid CM225) in two-fold steps from 1000 μg/ml to 1 μg/ml. Solutions containing 1000 μg/ml were prepared by dissolving 20 mg of each compound in 5 ml of acetone and this was then made up to 20 ml with Brain Heart Infusion Broth. Serial two-fold dilutions were then prepared in the broth down to 1 μg/ml.
(§2) For testing against the bacteria each of the prepared test concentrations and acetone controls prepared in Brain Heart Infusion were dispensed in 2 ml amounts for each organism. A growth control of 2 ml of Brain Heart Infusion was included in each series.
(§3) To each of the prepared sets of concentrations of each compound were added 0.1 ml aliquots of the organism suspensions prepared as described previously. All the bottles were incubated at 37° C. for 48 hours in the case of the bacteria and from 5 to 15 days for the fungi (until growth controls had grown in each case).
(§4) After incubation the broths were examined for evidence of growth. The lowest concentration of the test compound which prevented growth was recorded as the Minimum Inhibitory Concentration (MIC).
In general terms: In broth dilution the organism is exposed to a series of concentrations in liquid medium.

The test system of data set [2] is St. PYOGENES
Described as above. It counts as cell-based. Particulars: 37° C., 48 hours. As to the method: as §1, §2, §3, §4

Data set [3] relates to C. ALBICANS
Nature of the data set: Minimum Inhibitory Concentration (MIC), dilution in Sabouraud liquid medium. It counts as cell-based. Particulars: 37° C., 5 to 15 days. As to the method: (§5) For testing against the fungi, concentrations of each of the compounds were prepared in Sabouraud liquid medium in two-fold steps from 100 μg/ml to 0.1 μg/ml. 500 μg/ml solutions were prepared by dissolving 10 mg in 5 ml of acetone, made up to 20 ml with Sabouraud liquid medium. 4 ml of the 500 μg/ml concentration was then made up to 20 ml with Sabouraud liquid medium to give a concentration of 100 μg/ml. Serial two-fold dilutions were prepared from this in the same medium down to 0.1 μg/ml.
(§6) For the fungi the same procedure was followed using the concentrations made up in Sabouraud liquid medium. The Nystatin concentrations were also dispensed in 2 ml amounts for each organism. Growth controls of Sabouraud liquid medium were included in each series.
as §3, §4

Data set [4] deals with Mic. CANIS. Described as above. It counts as cell-based. Particulars: 37° C., 5 to 15 days. The method, then:
as §5, §6, §3, §4

Data set [5] deals with Sp. SCHENKII
Described as above. It counts as cell-based. Particulars: 37° C., 5 to 15 days. The method, then:
as §5, §6, §3, §4

In data set [6] the test system is Tr. MENTAGROPHYTES
The description is as above. It counts as cell-based. Particulars: 37° C., 5 to 15 days. The method, then:
as §5, §6, §3, §4

The test system of data set [7] is Tr. RUBRUM. The description is as above. It counts as cell-based. Particulars: 37° C., 5 to 15 days. The method, then:
as §5, §6, §3, §4

Data set [8] deals with CD-1 mice. Nature of the data set: Acute oral toxicity in CD-1 mice. It counts as in vivo. Particulars: male and female CD-1 mice, dose levels 1000, 464, 215 and 100 mg/kg, 7 days observation. As to the method:
Male and female CD-1 mice were fasted for 18 hours prior to the experiment, but water was available ad libitum except during the observation period. The test compounds were prepared in 1% tragacanth and were administered orally to groups of two male and two female mice.
All compounds were tested at dose levels of 1000, 464, 215 and 100 mg/kg. Immediately after dosing, the mice were replaced in their "home" cage and were observed daily for 7 days post dose and any mortalities recorded.
The acute toxicities, as determined by the above procedure, of a number of representative compounds are given in the accompanying table.

Bounds are passed on as bounds.

Regarding “either 7-butyryl-4,6-dihydroxy-2-methyl-2,3-dihydrobenzofuran or 5-butyryl-4,6-dihydroxy-2-methyl-2,3-dihydrobenzofuran [Compound 35]”, the “MIC S. AUREUS” value in data set [1] was found to be 125 µg/mL. Also, the “MIC St. PYOGENES” value in data set [2] came to 32 µg/mL. Moreover, the “MIC C. ALBICANS” value in data set [3] was determined as 25 µg/mL. The “MIC Mic. CANIS” value in data set [4] is reported as 12,5 μg/ml. Besides, the “MIC Sp. SCHENKII” value in data set [5] amounted to 50 µg/mL. Also, the “MIC Tr. MENTAGROPHYTES” value in data set [6] turned out to be 25 µg/mL. In data set [7], the “MIC Tr. RUBRUM” value came out at 25 µg/mL. The substance also showed an LD50 in data set [8] of over 1000.
